Results: US8883749B2, “Transcription factor inhibitors and related compositions, formulations and methods” (The Ohio State University, priority 2009, dated 2014)
One block for each compound: values may come before it.

How the values were obtained:
CHK1 = target: T1, CHK1 (Homo sapiens, UniProt O14757); experiment: Kinase profiler assay; assay type: biochemical; conditions: 10 concentrations, 100 μM highest
T1 construct: purchased Millipore UK Limited (Dundee, UK) or Reaction Biology Corp. (Malvern, Pa.)

Fes = target: T2, Fes (Homo sapiens, UniProt P07332); experiment: Kinase profiler assay; assay type: biochemical; conditions: 10 concentrations, 100 μM highest
T2 construct: purchased Millipore UK Limited (Dundee, UK) or Reaction Biology Corp. (Malvern, Pa.)
T2 sequence (P07332 whole entry): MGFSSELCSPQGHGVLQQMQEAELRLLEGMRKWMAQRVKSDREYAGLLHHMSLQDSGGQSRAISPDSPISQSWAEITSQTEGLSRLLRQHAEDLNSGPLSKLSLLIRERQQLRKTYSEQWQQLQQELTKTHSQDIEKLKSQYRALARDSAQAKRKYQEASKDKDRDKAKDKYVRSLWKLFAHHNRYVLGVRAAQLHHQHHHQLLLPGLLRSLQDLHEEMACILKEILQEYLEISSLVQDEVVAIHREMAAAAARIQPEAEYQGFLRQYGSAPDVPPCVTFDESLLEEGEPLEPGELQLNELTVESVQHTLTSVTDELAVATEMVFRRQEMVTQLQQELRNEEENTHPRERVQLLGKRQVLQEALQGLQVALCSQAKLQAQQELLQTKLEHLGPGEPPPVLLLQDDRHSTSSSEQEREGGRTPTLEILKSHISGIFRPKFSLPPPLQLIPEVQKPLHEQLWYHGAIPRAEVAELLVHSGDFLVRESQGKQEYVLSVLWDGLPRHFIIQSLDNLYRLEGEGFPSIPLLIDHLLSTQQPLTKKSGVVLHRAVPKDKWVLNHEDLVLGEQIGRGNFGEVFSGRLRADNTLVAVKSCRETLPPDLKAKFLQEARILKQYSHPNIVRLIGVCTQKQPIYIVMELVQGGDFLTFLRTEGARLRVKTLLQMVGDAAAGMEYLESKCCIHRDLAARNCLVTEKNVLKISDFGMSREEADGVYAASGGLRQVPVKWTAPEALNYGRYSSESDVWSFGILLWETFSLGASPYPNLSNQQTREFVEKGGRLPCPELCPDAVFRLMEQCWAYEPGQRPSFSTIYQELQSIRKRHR

Met = target: T3, Met (Homo sapiens, UniProt P08581); experiment: Kinase profiler assay; assay type: biochemical; conditions: 10 concentrations, 100 μM highest
T3 construct: purchased Millipore UK Limited (Dundee, UK) or Reaction Biology Corp. (Malvern, Pa.)
T3 sequence (P08581 25-1390): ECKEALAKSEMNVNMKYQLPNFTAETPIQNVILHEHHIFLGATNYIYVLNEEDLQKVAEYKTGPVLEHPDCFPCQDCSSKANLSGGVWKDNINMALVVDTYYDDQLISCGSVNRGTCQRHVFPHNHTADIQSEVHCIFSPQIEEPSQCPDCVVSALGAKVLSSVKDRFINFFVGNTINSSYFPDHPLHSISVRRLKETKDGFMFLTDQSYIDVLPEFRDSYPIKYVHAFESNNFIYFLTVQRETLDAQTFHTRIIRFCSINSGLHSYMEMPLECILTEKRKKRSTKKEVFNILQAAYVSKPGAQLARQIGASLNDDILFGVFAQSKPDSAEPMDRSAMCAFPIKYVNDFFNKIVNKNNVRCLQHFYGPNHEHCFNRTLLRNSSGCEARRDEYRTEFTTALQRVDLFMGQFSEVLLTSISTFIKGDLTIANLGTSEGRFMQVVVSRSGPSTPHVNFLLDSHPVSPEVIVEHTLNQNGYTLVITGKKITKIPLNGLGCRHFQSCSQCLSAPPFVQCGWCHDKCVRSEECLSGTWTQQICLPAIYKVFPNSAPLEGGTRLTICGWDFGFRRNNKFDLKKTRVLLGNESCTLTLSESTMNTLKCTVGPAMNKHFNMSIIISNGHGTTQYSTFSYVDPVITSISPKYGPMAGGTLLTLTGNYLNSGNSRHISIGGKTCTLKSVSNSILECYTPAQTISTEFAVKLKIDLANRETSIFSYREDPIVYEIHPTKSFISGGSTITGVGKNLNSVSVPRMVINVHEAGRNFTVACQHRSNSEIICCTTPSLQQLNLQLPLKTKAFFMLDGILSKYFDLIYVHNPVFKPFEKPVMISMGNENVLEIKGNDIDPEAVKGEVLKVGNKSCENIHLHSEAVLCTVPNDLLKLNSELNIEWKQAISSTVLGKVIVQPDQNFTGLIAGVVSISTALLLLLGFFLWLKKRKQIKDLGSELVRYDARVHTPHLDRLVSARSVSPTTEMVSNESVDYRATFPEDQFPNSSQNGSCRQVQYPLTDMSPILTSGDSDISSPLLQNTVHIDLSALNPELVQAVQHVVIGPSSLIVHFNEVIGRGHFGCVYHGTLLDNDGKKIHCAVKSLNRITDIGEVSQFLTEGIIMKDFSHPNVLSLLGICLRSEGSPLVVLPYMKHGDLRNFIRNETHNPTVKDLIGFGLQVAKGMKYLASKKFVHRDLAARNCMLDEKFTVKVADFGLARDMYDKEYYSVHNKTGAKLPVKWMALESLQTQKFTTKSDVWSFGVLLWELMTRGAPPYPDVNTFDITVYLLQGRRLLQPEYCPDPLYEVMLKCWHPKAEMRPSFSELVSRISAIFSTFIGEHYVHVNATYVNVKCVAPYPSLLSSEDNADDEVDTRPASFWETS

Erb B2/H ER2 = target: T4, Erb B2/H ER2 (Homo sapiens, UniProt P04626); experiment: Kinase profiler assay; assay type: biochemical; conditions: 10 concentrations, 100 μM highest
T4 construct: purchased Millipore UK Limited (Dundee, UK) or Reaction Biology Corp. (Malvern, Pa.)

c-SRC = target: T5, c-SRC (Homo sapiens, UniProt P12931); experiment: Kinase profiler assay; assay type: biochemical; conditions: 10 concentrations, 100 μM highest
T5 construct: purchased Millipore UK Limited (Dundee, UK) or Reaction Biology Corp. (Malvern, Pa.)
T5 sequence (P12931 whole entry): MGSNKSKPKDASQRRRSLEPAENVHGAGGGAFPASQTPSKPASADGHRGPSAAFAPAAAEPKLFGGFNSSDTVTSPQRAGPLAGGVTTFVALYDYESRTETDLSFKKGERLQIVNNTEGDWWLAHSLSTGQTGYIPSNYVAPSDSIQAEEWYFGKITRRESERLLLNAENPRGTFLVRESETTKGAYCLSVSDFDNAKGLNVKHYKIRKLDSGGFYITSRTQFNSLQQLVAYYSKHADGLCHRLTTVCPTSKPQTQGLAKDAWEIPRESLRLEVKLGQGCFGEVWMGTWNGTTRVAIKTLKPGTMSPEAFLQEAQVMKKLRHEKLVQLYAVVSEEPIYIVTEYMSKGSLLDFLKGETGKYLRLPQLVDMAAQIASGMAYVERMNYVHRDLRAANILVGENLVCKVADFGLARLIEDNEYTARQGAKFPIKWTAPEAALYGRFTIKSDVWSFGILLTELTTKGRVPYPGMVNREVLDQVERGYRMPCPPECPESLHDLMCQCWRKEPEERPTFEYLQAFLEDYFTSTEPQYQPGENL

C-RAF = target: T6, C-RAF (Homo sapiens, UniProt P04049); experiment: Kinase profiler assay; assay type: biochemical; conditions: 10 concentrations, 100 μM highest
T6 construct: purchased Millipore UK Limited (Dundee, UK) or Reaction Biology Corp. (Malvern, Pa.)

Bmx = target: T7, Bmx (Homo sapiens, UniProt P51813); experiment: Kinase profiler assay; assay type: biochemical; conditions: 10 concentrations, 100 μM highest
T7 construct: purchased Millipore UK Limited (Dundee, UK) or Reaction Biology Corp. (Malvern, Pa.)

C-Kit = target: T8, C-Kit (Homo sapiens, UniProt P10721); experiment: Kinase profiler assay; assay type: biochemical; conditions: 10 concentrations, 100 μM highest
T8 construct: purchased Millipore UK Limited (Dundee, UK) or Reaction Biology Corp. (Malvern, Pa.)

Pyk2 = target: T9, Pyk2 (Homo sapiens, UniProt Q14289); experiment: Kinase profiler assay; assay type: biochemical; conditions: 10 concentrations, 100 μM highest
T9 construct: purchased Millipore UK Limited (Dundee, UK) or Reaction Biology Corp. (Malvern, Pa.)
T9 sequence (Q14289 whole entry): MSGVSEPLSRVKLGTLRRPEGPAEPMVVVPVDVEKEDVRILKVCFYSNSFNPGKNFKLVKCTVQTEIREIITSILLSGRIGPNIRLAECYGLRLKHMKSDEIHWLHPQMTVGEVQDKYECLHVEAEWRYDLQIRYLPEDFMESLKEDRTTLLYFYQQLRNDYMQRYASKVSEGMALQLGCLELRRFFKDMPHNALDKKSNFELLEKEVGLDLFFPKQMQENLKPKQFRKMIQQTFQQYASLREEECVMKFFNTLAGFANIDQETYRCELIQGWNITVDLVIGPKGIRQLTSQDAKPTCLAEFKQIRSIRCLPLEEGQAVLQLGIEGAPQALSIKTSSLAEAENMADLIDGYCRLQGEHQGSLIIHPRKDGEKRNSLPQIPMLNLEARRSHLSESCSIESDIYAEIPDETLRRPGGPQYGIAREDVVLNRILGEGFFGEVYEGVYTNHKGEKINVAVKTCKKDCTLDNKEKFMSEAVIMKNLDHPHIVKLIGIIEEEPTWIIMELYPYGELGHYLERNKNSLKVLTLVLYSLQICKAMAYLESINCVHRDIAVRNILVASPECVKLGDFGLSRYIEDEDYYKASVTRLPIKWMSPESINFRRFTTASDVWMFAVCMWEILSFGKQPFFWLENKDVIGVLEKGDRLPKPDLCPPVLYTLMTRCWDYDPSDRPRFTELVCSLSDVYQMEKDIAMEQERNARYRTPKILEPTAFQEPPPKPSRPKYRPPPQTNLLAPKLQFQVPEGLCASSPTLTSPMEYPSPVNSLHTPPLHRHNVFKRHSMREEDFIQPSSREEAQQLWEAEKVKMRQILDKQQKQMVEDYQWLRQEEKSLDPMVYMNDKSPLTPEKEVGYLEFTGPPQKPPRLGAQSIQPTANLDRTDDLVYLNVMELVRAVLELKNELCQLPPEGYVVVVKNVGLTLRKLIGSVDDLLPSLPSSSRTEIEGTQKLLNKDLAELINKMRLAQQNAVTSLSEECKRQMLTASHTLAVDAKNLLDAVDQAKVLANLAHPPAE

P13K (P110b/85a) = target: T10, P13K (P110b/85a) (Homo sapiens, UniProt P42338); experiment: Kinase profiler assay; assay type: biochemical; conditions: 10 concentrations, 100 μM highest
T10 construct: purchased Millipore UK Limited (Dundee, UK) or Reaction Biology Corp. (Malvern, Pa.)

JAK2 = target: T11, JAK2 (Homo sapiens, UniProt O60674); experiment: Kinase profiler assay; assay type: biochemical; conditions: 10 concentrations, 100 μM highest
T11 construct: purchased Millipore UK Limited (Dundee, UK) or Reaction Biology Corp. (Malvern, Pa.)

P13K (P110a/85a) = target: T12, P13K (P110a/85a) (Homo sapiens, UniProt P42336); experiment: Kinase profiler assay; assay type: biochemical; conditions: 10 concentrations, 100 μM highest
T12 construct: purchased Millipore UK Limited (Dundee, UK) or Reaction Biology Corp. (Malvern, Pa.)

CDK6/CyclinD1 = target: T13, CDK6/CyclinD1 (Homo sapiens, UniProt Q00534); experiment: Kinase profiler assay; assay type: biochemical; conditions: 10 concentrations, 100 μM highest
T13 construct: purchased Millipore UK Limited (Dundee, UK) or Reaction Biology Corp. (Malvern, Pa.)

VEGFR1 = target: T14, VEGFR1 (Homo sapiens, UniProt P17948); experiment: Kinase profiler assay; assay type: biochemical; conditions: 10 concentrations, 100 μM highest
T14 construct: purchased Millipore UK Limited (Dundee, UK) and Reaction Biology Corp. (Malvern, Pa.)

EGFR = target: T15, EGFR (Homo sapiens, UniProt P00533); experiment: Kinase profiler assay; assay type: biochemical; conditions: 10 concentrations, 100 μM highest
T15 construct: purchased Millipore UK Limited (Dundee, UK) or Reaction Biology Corp. (Malvern, Pa.)

Yes = target: T16, Yes (Homo sapiens, UniProt P07947); experiment: Kinase profiler assay; assay type: biochemical; conditions: 10 concentrations, 100 μM highest
T16 construct: purchased Millipore UK Limited (Dundee, UK) or Reaction Biology Corp. (Malvern, Pa.)

mTOR = target: T17, mTOR (Homo sapiens, UniProt P42345); experiment: Kinase profiler assay; assay type: biochemical; conditions: 10 concentrations, 100 μM highest
T17 construct: purchased Millipore UK Limited (Dundee, UK) or Reaction Biology Corp. (Malvern, Pa.)

CDK4/CyclinD1 = target: T18, CDK4/CyclinD1 (Homo sapiens, UniProt P11802); experiment: Kinase profiler assay; assay type: biochemical; conditions: 10 concentrations, 100 μM highest
T18 construct: purchased Millipore UK Limited (Dundee, UK) or Reaction Biology Corp. (Malvern, Pa.)

PKC-b = target: T19, PKC-b (Homo sapiens, UniProt P05771); experiment: Kinase profiler assay; assay type: biochemical; conditions: 10 concentrations, 100 μM highest
T19 construct: purchased Millipore UK Limited (Dundee, UK) or Reaction Biology Corp. (Malvern, Pa.)

MDA-MB-231 cells = experiment: Soft agar colony formation assay; assay type: cell-based, human; conditions: LLL12 1 μM or 5 μM, two weeks
Description: A base 0.6% agar gel with 10% FBS in DMEM was prepared and added to the wells of a 6-well culture dish. […] The cells were maintained at 37° C. and allowed to grow for two weeks. The colonies were stained using MTT dye (100 μL per well). Pictures of the colonies were taken using a Leica MZ 16FA inverted microscope (Leica Microsystems) with a 7.4 Slider Camera (Diagnostic Instruments Inc.). The colonies were scored by counting and numbers were normalized as a percentage of colonies formed in DMSO.

PAK1 = target: T20, PAK1 (Homo sapiens, UniProt Q13153); experiment: Kinase profiler assay; assay type: biochemical; conditions: 10 concentrations, 100 μM highest
T20 construct: purchased Millipore UK Limited (Dundee, UK) or Reaction Biology Corp. (Malvern, Pa.)

Fyn = target: T21, Fyn (Homo sapiens, UniProt P06241); experiment: Kinase profiler assay; assay type: biochemical; conditions: 10 concentrations, 100 μM highest
T21 construct: purchased Millipore UK Limited (Dundee, UK) or Reaction Biology Corp. (Malvern, Pa.)

AKT1 = target: T22, AKT1 (Homo sapiens, UniProt P31749); experiment: Kinase profiler assay; assay type: biochemical; conditions: 10 concentrations, 100 μM highest
T22 construct: purchased Millipore UK Limited (Dundee, UK) or Reaction Biology Corp. (Malvern, Pa.)
T22 sequence (P31749 whole entry): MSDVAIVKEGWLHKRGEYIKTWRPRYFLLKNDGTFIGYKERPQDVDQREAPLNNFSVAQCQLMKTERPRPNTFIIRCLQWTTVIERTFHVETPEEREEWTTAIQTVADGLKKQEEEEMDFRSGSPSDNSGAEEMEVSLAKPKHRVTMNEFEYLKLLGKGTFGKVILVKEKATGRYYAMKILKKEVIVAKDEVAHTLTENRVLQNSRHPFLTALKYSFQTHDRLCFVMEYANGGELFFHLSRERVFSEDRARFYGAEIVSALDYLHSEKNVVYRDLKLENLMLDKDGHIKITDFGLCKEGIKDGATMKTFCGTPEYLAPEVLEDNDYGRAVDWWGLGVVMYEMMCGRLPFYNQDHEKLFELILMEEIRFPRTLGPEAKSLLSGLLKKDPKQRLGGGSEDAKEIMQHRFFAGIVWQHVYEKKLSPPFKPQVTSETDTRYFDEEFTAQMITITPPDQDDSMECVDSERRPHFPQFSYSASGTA

TAK1 = target: T23, TAK1 (Homo sapiens, UniProt O43318); experiment: Kinase profiler assay; assay type: biochemical; conditions: 10 concentrations, 100 μM highest
T23 construct: purchased Millipore UK Limited (Dundee, UK) or Reaction Biology Corp. (Malvern, Pa.)
T23 sequence (O43318 1-303 limits assumed): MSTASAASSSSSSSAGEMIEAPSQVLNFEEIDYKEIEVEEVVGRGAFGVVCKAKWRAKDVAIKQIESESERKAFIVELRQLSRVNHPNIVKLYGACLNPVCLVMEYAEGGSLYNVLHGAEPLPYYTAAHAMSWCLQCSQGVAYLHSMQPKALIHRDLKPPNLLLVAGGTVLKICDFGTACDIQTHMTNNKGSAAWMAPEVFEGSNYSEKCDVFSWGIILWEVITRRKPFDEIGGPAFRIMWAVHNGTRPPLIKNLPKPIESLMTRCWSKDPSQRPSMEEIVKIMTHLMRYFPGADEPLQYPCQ
T23 sequence (Q15750 437-504 partner limits assumed): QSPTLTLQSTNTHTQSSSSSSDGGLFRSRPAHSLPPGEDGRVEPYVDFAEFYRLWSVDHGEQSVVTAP

PDK1 = target: T24, PDK1 (Homo sapiens, UniProt O15530); experiment: Kinase profiler assay; assay type: biochemical; conditions: 10 concentrations, 100 μM highest
T24 construct: purchased Millipore UK Limited (Dundee, UK) or Reaction Biology Corp. (Malvern, Pa.)

Syk = target: T25, Syk (Homo sapiens, UniProt P43405); experiment: Kinase profiler assay; assay type: biochemical; conditions: 10 concentrations, 100 μM highest
T25 construct: purchased Millipore UK Limited (Dundee, UK) or Reaction Biology Corp. (Malvern, Pa.)

[1] = test system: HPDE, HMEC, HH and WI-38 cells; experiment: Western blot, cleaved PARP and caspase-3 in normal cells; conditions: LLL12 5 μM or 10 μM, 24 hours
[2] = target: STAT3 phosphorylation in ALDH^+ subpopulation of MDA-MB-231, SUM159, and SK-BR-3 (Homo sapiens, UniProt P40763); experiment: Western blot of ALDH+ cells; assay type: cell-based; conditions: LLL12 5 μmol/L, 24 hours
Description: ALDH^+ and ALDH^- subpopulations, or ALDH^+/CD44^+/CD24^- and ALDH^-/CD44^+/CD24^+ subpopulations of breast cancer cells were separated by flow cytometer. After sorting, ALDH^+ and ALDH^+/CD44^+/CD24^- stem cells were cultured in serum-free stem cell medium in ultra-low attachment six-well plates (Corning) to maintain cancer stem cell characteristics. ALDH^-, ALDH^-/CD44^+/CD24^+ cells and unseperated cells were cultured in regular medium and replaced with identical stem cell medium for three days before being harvested.

ALDH^− cells = experiment: Effects on ALDH- cells; assay type: cell-based, human
[3] = test system: ALDH^+ subpopulation of MDA-MB-231, SUM159, and SK-BR3 cells; experiment: MTT cell viability assay of ALDH+ cells; assay type: cell-based, human; conditions: 1 to 10 μmol/L, 72 hours
Description: The ALDH^+ subpopulation of breast cancer cells was seeded in 96-well plates (3,000 cells/well) in triplicates in a serum-free mammary epithelial basal medium. […] MTT (Thiazolyl Blue Tetrazolium Bromide, Sigma-Aldrich) assay was used to determine the cell viability.

[4] = test system: ALDH^+ subpopulation of SK-BR-3, MDA-MB-231, and SUM159; experiment: Tumorsphere culture of ALDH+ cells; assay type: cell-based, human; conditions: 2.5-10 μmol/L, 10 to 15 days
Description: Tumorsphere culture was performed as previously described (4). ALDH^+ and ALDH^+/CD44^+/CD24^− cells were plated as single cells in ultra-low attachment six-well plates at a density of 50,000 viable cells/well. […] Tumorsphere growth was observed under a microscope 10 to 15 days later.

[5] = test system: ALDH^+ subpopulation of MDA-MB-231, SUM159, and SK-BR-3 breast cancer cells; experiment: ALDEFLUOR assay, percentage of ALDH+ subpopulation; assay type: cell-based, human; conditions: 10 μM, 24 hours
Text: The ALDEFLUOR kit (StemCell Technologies) was used to isolate the population with high ALDH enzymatic activity as known. […] For each sample, an aliquot of cells was stained under identical conditions with […] diethylaminobenzaldehyde (DEAB), a specific ALDH inhibitor, as a ALDH^− control. Anti-human PE-CD24 and PE-Cy5-CD44 antibody (BioLegend) were used for CD44/CD24 identification and to separate ALDH^+/CD44^+/CD24^− and ALDH^−/CD44^+/CD24^+ cells when combine with ALDH staining. Analysis was performed using a FACStarPLUS (Becton Dickinion) flow cytometer.

IC50 (CHK1): > 100 µM
IC50 (Fes): > 100 µM
IC50 (Met): > 100 µM
IC50 (Erb B2/H ER2): > 100 µM
IC50 (c-SRC): > 100 µM
IC50 (C-RAF): > 100 µM
IC50 (Bmx): > 100 µM
IC50 (C-Kit): > 100 µM
IC50 (Pyk2): > 100 µM
IC50 (P13K (P110b/85a)): > 100 µM
IC50 (JAK2): > 100 µM
IC50 (P13K (P110a/85a)): > 100 µM
IC50 (CDK6/CyclinD1): > 100 µM
IC50 (VEGFR1): > 100 µM
IC50 (EGFR): > 100 µM
IC50 (Yes): > 100 µM
IC50 (mTOR): > 100 µM
IC50 (CDK4/CyclinD1): 77.9 µM
IC50 (PKC-b): > 100 µM
IC50 (PAK1): > 100 µM
IC50 (Fyn): > 100 µM
IC50 (AKT1): > 100 µM
IC50 (TAK1): > 100 µM
IC50 (PDK1): > 100 µM
IC50 (Syk): > 100 µM
cleaved PARP or caspase-3 in cells without elevated STAT3 phosphorylation [1]: did not induce cleaved PARP or caspase-3
SMILES: NS(=O)(=O)c1cccc2c1C(=O)c1cccc(O)c1C2=O [LLL12]
decrease in colony formation compared to the DMSO control (MDA-MB-231 cells): over 95%

STAT3 phosphorylation in ALDH^+ cells [2]: reduces STAT3 phosphorylation
SMILES: O=[N+]([O-])c1ccc2c(c1)S(=O)(=O)C=C2 [Stattic]
effects on ALDH^− cells (ALDH^− cells): inhibitory effects
cell viability of the ALDH^+ subpopulation [3]: can inhibit cell viability
tumorsphere forming capacity [4]: can inhibit tumorsphere forming capacity
ALDH^+ subpopulation percentage [5]: decreased the percentage of ALDH^+ subpopulation
